Measured values from the NIST ThermoML archive (doi:10.1021/je0499364).

Columns and labels:
[1] = Molar enthalpy of transition or fusion; details: Crystal
[2] = Crystal
[3] = molar heat capacity at constant pressure; details: 101.33 kPa

CCCCCCCCCCCCCCCCCC(=O)OC [methyl octadecanoate]
Details | Molar enthalpy of transition or fusion [kcal/mol] | Triple point temperature [K]
[1] | 15.86 | –
[2] | – | 311.84

[3]
Details | molar heat capacity at constant pressure [J/K/mol]
5 K, Crystal | 0.82
10 K, Crystal | 5.96
20 K, Crystal | 26.2
30 K, Crystal | 52.72
40 K, Crystal | 82.6
50 K, Crystal | 112.11
60 K, Crystal | 137.8
70 K, Crystal | 162.71
80 K, Crystal | 182.89
90 K, Crystal | 201.46
100 K, Crystal | 217.35
110 K, Crystal | 234.15
120 K, Crystal | 248.17
130 K, Crystal | 261.72
140 K, Crystal | 274.54
150 K, Crystal | 286.99
160 K, Crystal | 299.33
170 K, Crystal | 312.93
180 K, Crystal | 327.18
190 K, Crystal | 341.65
200 K, Crystal | 354.7
210 K, Crystal | 368.18
220 K, Crystal | 382.77
230 K, Crystal | 397.82
240 K, Crystal | 413.11
250 K, Crystal | 428.51
260 K, Crystal | 446.92
270 K, Crystal | 468.64
280 K, Crystal | 497.34
290 K, Crystal | 541.05
320 K, Liquid | 639
330 K, Liquid | 646.44
340 K, Liquid | 655.14
350 K, Liquid | 664.03

CCCCCCCC(=O)OC [methyl octanoate]
Details | Molar enthalpy of transition or fusion [kcal/mol]
[1], Adiabatic calorimetry | 6.13

Details | Triple point temperature [K]
[2] | 236.2

[3]
Details | molar heat capacity at constant pressure [J/K/mol]
5 K, Crystal | 0.38
10 K, Crystal | 3.03
20 K, Crystal | 18.19
30 K, Crystal | 33.71
40 K, Crystal | 50.53
50 K, Crystal | 66.36
60 K, Crystal | 79.75
70 K, Crystal | 92.33
80 K, Crystal | 103.39
90 K, Crystal | 113.4
100 K, Crystal | 122.25
110 K, Crystal | 131.1
120 K, Crystal | 138.74
130 K, Crystal | 146.18
140 K, Crystal | 153.44
150 K, Crystal | 160.31
160 K, Crystal | 167.13
170 K, Crystal | 174.18
180 K, Crystal | 181.34
190 K, Crystal | 188.84
200 K, Crystal | 196.94
210 K, Crystal | 205.99
220 K, Crystal | 217.68
230 K, Crystal | 242.75
240 K, Liquid | 301.67
250 K, Liquid | 301.39
260 K, Liquid | 303.17
270 K, Liquid | 305.83
280 K, Liquid | 308.83
290 K, Liquid | 312.81
300 K, Liquid | 316.17
310 K, Liquid | 320.13
320 K, Liquid | 323.19
330 K, Liquid | 327.93
340 K, Liquid | 332.21
350 K, Liquid | 336.19

CCCCCCCCCCCCCCC(=O)OC [methyl pentadecanoate]
Details | Molar enthalpy of transition or fusion [kcal/mol] | Triple point temperature [K]
[1] | 12.97 | –
[2] | – | 292.35

[3]
Details | molar heat capacity at constant pressure [J/K/mol]
5 K, Crystal | 0.5
10 K, Crystal | 4.15
20 K, Crystal | 21.13
30 K, Crystal | 43.92
40 K, Crystal | 71.36
50 K, Crystal | 97.58
60 K, Crystal | 120.37
70 K, Crystal | 141.42
80 K, Crystal | 159.35
90 K, Crystal | 175.8
100 K, Crystal | 190.15
110 K, Crystal | 203.86
120 K, Crystal | 216.45
130 K, Crystal | 228.03
140 K, Crystal | 239.15
150 K, Crystal | 249.97
160 K, Crystal | 260.57
170 K, Crystal | 272.29
180 K, Crystal | 282.1
190 K, Crystal | 293.1
200 K, Crystal | 304.43
210 K, Crystal | 316.28
220 K, Crystal | 328.72
230 K, Crystal | 341.8
240 K, Crystal | 355.9
250 K, Crystal | 371.28
260 K, Crystal | 387.35
270 K, Crystal | 403.92
280 K, Crystal | 432.13
300 K, Liquid | 524.33
310 K, Liquid | 534.12
320 K, Liquid | 539.26
330 K, Liquid | 544.8
340 K, Liquid | 551.15

CCCCCCCCCCCCCC(=O)OC [methyl tetradecanoate]
Details | Molar enthalpy of transition or fusion [kcal/mol] | Triple point temperature [K]
[1] | 12.43 | –
[2] | – | 292.14

[3]
Details | molar heat capacity at constant pressure [J/K/mol]
5 K, Crystal | 0.55
10 K, Crystal | 4.56
20 K, Crystal | 21.34
30 K, Crystal | 43.99
40 K, Crystal | 69.2
50 K, Crystal | 93.62
60 K, Crystal | 113.9
70 K, Crystal | 133.41
80 K, Crystal | 150.35
90 K, Crystal | 165.54
100 K, Crystal | 179.38
110 K, Crystal | 192.06
120 K, Crystal | 203.55
130 K, Crystal | 214.52
140 K, Crystal | 224.93
150 K, Crystal | 235.23
160 K, Crystal | 244.79
170 K, Crystal | 254.91
180 K, Crystal | 265.19
190 K, Crystal | 275.63
200 K, Crystal | 286.07
210 K, Crystal | 296.67
220 K, Crystal | 308.85
230 K, Crystal | 321.05
240 K, Crystal | 334.49
250 K, Crystal | 349.48
260 K, Crystal | 368.64
270 K, Crystal | 388.14
280 K, Crystal | 429.3
300 K, Liquid | 500.03
310 K, Liquid | 504.66
320 K, Liquid | 510
330 K, Liquid | 515.86
340 K, Liquid | 522.03
350 K, Liquid | 528.04

CCCCCCCCCCCCC(=O)OC [methyl tridecanoate]
Details | Molar enthalpy of transition or fusion [kcal/mol] | Triple point temperature [K]
[1] | 10.9 | –
[2] | – | 279.07

[3]
Details | molar heat capacity at constant pressure [J/K/mol]
5 K, Crystal | 0.53
10 K, Crystal | 4.03
20 K, Crystal | 19.77
30 K, Crystal | 41.39
40 K, Crystal | 65.69
50 K, Crystal | 89.16
60 K, Crystal | 108.8
70 K, Crystal | 127.88
80 K, Crystal | 144.45
90 K, Crystal | 158.95
100 K, Crystal | 171.63
110 K, Crystal | 183.91
120 K, Crystal | 195.21
130 K, Crystal | 205.64
140 K, Crystal | 215.67
150 K, Crystal | 225.37
160 K, Crystal | 234.95
170 K, Crystal | 244.5
180 K, Crystal | 254.1
190 K, Crystal | 264.04
200 K, Crystal | 274.24
210 K, Crystal | 284.88
220 K, Crystal | 296.06
230 K, Crystal | 307.94
240 K, Crystal | 321.07
250 K, Crystal | 336.07
260 K, Crystal | 350.98
270 K, Crystal | 371.61
290 K, Liquid | 463.91
300 K, Liquid | 469.05
310 K, Liquid | 473.89
320 K, Liquid | 479.3
330 K, Liquid | 485.18
340 K, Liquid | 491.82
